In patent publication US12421226B2, “Heteroaryl compounds as necrosis inhibitors, composition and method using the same” (Accro Bioscience (HK), priority 2019, dated 2025):
Where a name gives a salt, the structure may show the parent alone.

system: L929 mouse skin fibroblast cells; test: Necroptosis inhibition in L929 cell assay (TNF-α/z-VAD induced, cell viability by ATP levels); type: cell-based; conditions: Mus musculus, 1 h pre-treatment with compound, then TNF-α 40 ng/mL + z-VAD 20 μM for 48 hours
Experimental: 2. Compounds Tested for Necroptosis Inhibition Activities in L929 Cell Assay
(§1) Mouse L929 mouse skin fibroblast cells were added to 96-well plates and then were pre-treated with 10 μM of the test compound for one hour. Then the cells were treated with TNF-α (40 ng/mL, lab-made) and z-VAD (capase inhibitor, from calbiochem) (20 μM) for 48 hours, and the viability of cells was quantified by detecting adenosine triphosphate (ATP) levels. DMSO pretreatment group was used as negative controls, Nec-1 (known necroptosis inhibitor, from Biomol) pretreatment group was used as positive controls.

Point of comparison: CN1CCC(NC(=O)c2nsc3ncc(-c4ccc5nc(NC(=O)C6CC6)sc5c4)cc23)CC1 [Compound C42, 5-(2-(cyclopropanecarboxamido)benzo[d]thiazol-6-yl)-N-(1-methylpiperidin-4-yl)isothiazolo[5,4-b]pyridine-3-carboxamide], IC50 321 nM. Against it:
- O=C(NC1CCCCC1)c1nsc2ncc(-c3ccc4nc(NC(=O)C5CC5)sc4c3)cc12 [Compound C23, N-cyclohexyl-5-[2-(cyclopropanecarbonylamino)-1,3-benzothiazol-6-yl]isothiazolo[5,4-b]pyridine-3-carboxamide] — 190-fold lower, 1.7 nM
- O=C(Nc1nc2ccc(-c3cnc4ccn(C(=O)OC5CCOCC5)c4c3)cc2s1)C1CC1 [Compound C5, tetrahydropyran-4-yl 6-[2-(cyclopropanecarbonylamino)-1,3-benzothiazol-6-yl]pyrrolo[3,2-b]pyridine-1-carboxylate] — 19-fold lower, 17 nM

system: HT29 cells; test: Necroptosis inhibition in HT29 cell assay (TNF-α/Smac mimetic/z-VAD induced, cell viability); type: cell-based; conditions: Homo sapiens, HT-29, 1 h pre-treatment with compound, then TNF-α 40 ng/mL + Smac mimetic 100 nM + z-VAD 20 μM for 48 hours
Experimental: 1. Compounds Tested for Necroptosis Inhibition Activities in HT29 Cell Assay
as §1, with “For this assay, HT29” for “Mouse L929 mouse skin fibroblast”, “tumor necrosis factor alpha (TNF-α, 40 ng/mL), Smacmimetic (cIAP inhibitor) (100 nM)” for “TNF-α (40 ng/mL, lab-made)”, “quantified.” for “quantified by detecting adenosine triphosphate (ATP) levels.”

Point of comparison: CC(=O)Nc1nc2ccc(-c3cnc4ncn(C(=O)OC5CCCCC5)c4c3)cc2s1 [Compound C2, cyclohexyl 6-(2-acetamido-1,3-benzothiazol-6-yl)imidazo[4,5-b]pyridine-1-carboxylate], IC50 11000 nM. Against it:
- O=C(NC1CCCCC1)c1nsc2ncc(-c3ccc4nc(NC(=O)C5CC5)sc4c3)cc12 [Compound C23, N-cyclohexyl-5-[2-(cyclopropanecarbonylamino)-1,3-benzothiazol-6-yl]isothiazolo[5,4-b]pyridine-3-carboxamide] — 2100-fold lower, 5.3 nM
- CN1CCC(NC(=O)c2nsc3ncc(-c4ccc5nc(NC(=O)C6CC6)sc5c4)cc23)CC1 [Compound C42, 5-(2-(cyclopropanecarboxamido)benzo[d]thiazol-6-yl)-N-(1-methylpiperidin-4-yl)isothiazolo[5,4-b]pyridine-3-carboxamide] — 3.7-fold lower, 3000 nM
- O=C(NC1CCCCC1)c1csc2ncc(-c3ccc4nc(NC(=O)C5CC5)cn4c3)cc12 [Compound C41, N-cyclohexyl-5-[2-(cyclopropanecarbonylamino)imidazo[1,2-a]pyridin-6-yl]thieno[2,3-b]pyridine-3-carboxamide] — 5500-fold lower, 2 nM
- O=C(Nc1nc2ccc(-c3cnc4ccn(C(=O)OC5CCOCC5)c4c3)cc2s1)C1CC1 [Compound C5, tetrahydropyran-4-yl 6-[2-(cyclopropanecarbonylamino)-1,3-benzothiazol-6-yl]pyrrolo[3,2-b]pyridine-1-carboxylate] — 2000-fold lower, 5.6 nM
- CCC(=O)Nc1nc2ccc(-c3cnc4ccn(C(=O)OC5CCCCC5)c4c3)cc2s1 [Compound C26, cyclohexyl 6-[2-(propanoylamino)-1,3-benzothiazol-6-yl]pyrrolo[3,2-b]pyridine-1-carboxylate] — 220-fold lower, 50 nM
- CC(=O)Nc1nc2ccc(-c3cnc4scc(C(=O)NC5CCCCC5)c4c3)cc2s1 [Compound C19, 5-(2-acetamido-1,3-benzothiazol-6-yl)-N-cyclohexyl-thieno[2,3-b]pyridine-3-carboxamide] — 1000-fold lower, 11 nM
- CNCC(C)NC(=O)c1nsc2ncc(-c3ccc4nc(NC(=O)C5CC5)sc4c3)cc12 (centres unmarked) [Compound C32, 5-[2-(cyclopropanecarbonylamino)-1,3-benzothiazol-6-yl]-N-[1-methyl-2-(methylamino)ethyl]isothiazolo[5,4-b]pyridine-3-carboxamide] — 7.9-fold lower, 1400 nM
- O=C(NC1CCOCC1)c1n[nH]c2ncc(-c3ccc4nc(NC(=O)C5CC5)sc4c3)cc12 [Compound C10, 5-[2-(cyclopropanecarbonylamino)-1,3-benzothiazol-6-yl]-N-tetrahydropyran-4-yl-1H-pyrazolo[3,4-b]pyridine-3-carboxamide] — within 1.5-fold, 12000 nM
- O=C(NC1CCOCC1)c1csc2ncc(-c3ccc4nc(NC(=O)C5CC5)cn4c3)cc12 [Compound C40, 5-[2-(cyclopropanecarbonylamino)imidazo[1,2-a]pyridin-6-yl]-N-tetrahydropyran-4-yl-thieno[2,3-b]pyridine-3-carboxamide] — 180-fold lower, 60 nM
- CC(=O)Nc1nc2ccc(-c3cnc4snc(C(=O)NC5CCCCC5)c4c3)cc2s1 [Compound C22, 5-(2-acetamido-1,3-benzothiazol-6-yl)-N-cyclohexyl-isothiazolo[5,4-b]pyridine-3-carboxamide] — 310-fold lower, 35 nM
- O=C(NC1CCOCC1)c1c[nH]c2ncc(-c3ccc4nc(NC(=O)C5CC5)sc4c3)cc12 [Compound C9, 5-[2-(cyclopropanecarbonylamino)-1,3-benzothiazol-6-yl]-N-tetrahydropyran-4-yl-1H-pyrrolo[2,3-b]pyridine-3-carboxamide] — 2.1-fold lower, 5200 nM
- O=C(NC1CCOCC1)c1cccc2ncc(-c3ccc4nc(NC(=O)C5CC5)sc4c3)cc12 [Compound C13, 3-[2-(cyclopropanecarbonylamino)-1,3-benzothiazol-6-yl]-N-tetrahydropyran-4-yl-quinoline-5-carboxamide] — within 1.5-fold, 13000 nM
- CNCC(C)NC(=O)c1csc2ncc(-c3ccc4nc(NC(=O)C5CC5)sc4c3)cc12 (centres unmarked) [Compound C28, 5-[2-(cyclopropanecarbonylamino)-1,3-benzothiazol-6-yl]-N-[1-methyl-2-(methylamino)ethyl]thieno[2,3-b]pyridine-3-carboxamide] — 29-fold lower, 380 nM
- O=C(NC1CCOCC1)c1nsc2ncc(-c3ccc4nc(NC(=O)C5CC5)cn4c3)cc12 [Compound C35, 5-[2-(cyclopropanecarbonylamino)imidazo[1,2-a]pyridin-6-yl]-N-tetrahydropyran-4-yl-isothiazolo[5,4-b]pyridine-3-carboxamide] — 69-fold lower, 160 nM
- CCC(CC)NC(=O)c1nsc2ncc(-c3ccc4nc(NC(=O)C5CC5)sc4c3)cc12 [Compound C31, 5-[2-(cyclopropanecarbonylamino)-1,3-benzothiazol-6-yl]-N-(1-ethylpropyl)isothiazolo[5,4-b]pyridine-3-carboxamide] — 1000-fold lower, 11 nM
- O=C(Nc1cn2cc(-c3cnc4ccn(C(=O)OC5CCCCC5)c4c3)ccc2n1)C1CC1 [Compound C17] — 690-fold lower, 16 nM
- CCC(CC)OC(=O)n1ccc2ncc(-c3ccc4nc(NC(=O)C5CC5)sc4c3)cc21 [Compound C24, 1-ethylpropyl 6-[2-(cyclopropanecarbonylamino)-1,3-benzothiazol-6-yl]pyrrolo[3,2-b]pyridine-1-carboxylate] — 330-fold lower, 33 nM
- CCC(CC)NC(=O)c1csc2ncc(-c3ccc4nc(NC(=O)C5CC5)sc4c3)cc12 [Compound C37, 5-[2-(cyclopropanecarbonylamino)-1,3-benzothiazol-6-yl]-N-(1-ethylpropyl)thieno[2,3-b]pyridine-3-carboxamide] — 3400-fold lower, 3.2 nM
- O=C(Nc1nc2ccc(-c3cnc4cnn(C(=O)OC5CCOCC5)c4c3)cc2s1)C1CC1 [Compound C11, tetrahydropyran-4-yl 6-[2-(cyclopropanecarbonylamino)-1,3-benzothiazol-6-yl]pyrazolo[4,3-b]pyridine-1-carboxylate] — 2.7-fold lower, 4100 nM
- CCOC(=O)Nc1nc2ccc(-c3cnc4snc(C(=O)NC5CCCCC5)c4c3)cc2s1 [Compound C29, ethyl N-[6-[3-(cyclohexylcarbamoyl)isothiazolo[5,4-b]pyridin-5-yl]-1,3-benzothiazol-2-yl]carbamate] — 3500-fold lower, 3.1 nM
- CNC(=O)Nc1nc2ccc(-c3cnc4snc(C(=O)NC5CCCCC5)c4c3)cc2s1 [Compound C27, N-cyclohexyl-5-[2-(methylcarbamoylamino)-1,3-benzothiazol-6-yl]isothiazolo[5,4-b]pyridine-3-carboxamide] — 330-fold lower, 33 nM
- CNCC(C)OC(=O)n1ccc2ncc(-c3ccc4nc(NC(=O)C5CC5)sc4c3)cc21 (centres unmarked) [Compound C36, [1-methyl-2-(methylamino)ethyl] 6-[2-(cyclopropanecarbonylamino)-1,3-benzothiazol-6-yl]pyrrolo[3,2-b]pyridine-1-carboxylate, hydrochloride salt] — within 1.5-fold, 16000 nM
- CCOC(=O)Nc1nc2ccc(-c3cnc4scc(C(=O)NC5CCCCC5)c4c3)cc2s1 [Compound C39, ethyl N-[6-[3-(cyclohexylcarbamoyl)thieno[2,3-b]pyridin-5-yl]-1,3-benzothiazol-2-yl]carbamate] — 230-fold lower, 48 nM
- O=C(Nc1nc2ccc(-c3cnc4ccn(C(=O)NC5CCOCC5)c4c3)cc2s1)C1CC1 [Compound C21, 6-[2-(cyclopropanecarbonylamino)-1,3-benzothiazol-6-yl]-N-tetrahydropyran-4-yl-pyrrolo[3,2-b]pyridine-1-carboxamide] — 500-fold lower, 22 nM
- O=C(Nc1nc2ccc(-c3cnc4ccn(C(=O)OC5CCCCC5)c4c3)cc2s1)C1CC1 [Compound C15] — 1600-fold lower, 7 nM
- O=C(Nc1nc2ccc(-c3cnc4ccn(C(=O)CC5CCCCC5)c4c3)cc2s1)C1CC1 [Compound C25, N-[6-[1-(2-cyclohexylacetyl)pyrrolo[3,2-b]pyridin-6-yl]-1,3-benzothiazol-2-yl]cyclopropanecarboxamide] — 380-fold lower, 29 nM
- CNC(=O)Nc1nc2ccc(-c3cnc4ccn(C(=O)OC5CCCCC5)c4c3)cc2s1 [Compound C16, cyclohexyl 6-[2-(methylcarbamoylamino)-1,3-benzothiazol-6-yl]pyrrolo[3,2-b]pyridine-1-carboxylate] — 440-fold lower, 25 nM
- CC(=O)Nc1nc2ccc(-c3cnc4ccn(C(=O)OC5CCCCC5)c4c3)cc2s1 [Compound C1, cyclohexyl 6-(2-acetamido-1,3-benzothiazol-6-yl)pyrrolo[3,2-b]pyridine-1-carboxylate] — 260-fold lower, 43 nM
- O=C(NC1CCC(F)(F)CC1)c1csc2ncc(-c3ccc4nc(NC(=O)C5CC5)sc4c3)cc12 [Compound C38, 5-[2-(cyclopropanecarbonylamino)-1,3-benzothiazol-6-yl]-N-(4,4-difluorocyclohexyl)thieno[2,3-b]pyridine-3-carboxamide] — 6100-fold lower, 1.8 nM
- CCOC(=O)Nc1nc2ccc(-c3cnc4ccn(C(=O)OC5CCCCC5)c4c3)cc2s1 [Compound C34, cyclohexyl 6-[2-(ethoxycarbonylamino)-1,3-benzothiazol-6-yl]pyrrolo[3,2-b]pyridine-1-carboxylate] — 73-fold lower, 150 nM
- CNC(=O)Nc1nc2ccc(-c3cnc4ccn(C(=O)OC5CCOCC5)c4c3)cc2s1 [Compound C7, tetrahydropyran-4-yl 6-[2-(methylcarbamoylamino)-1,3-benzothiazol-6-yl]pyrrolo[3,2-b]pyridine-1-carboxylate] — 340-fold lower, 32 nM
